The values that follow come from PMC3866251, “The Sodium/Proline Transporter PutP of Helicobacter pylori” (PLoS ONE, 2013).

Usually Ki stands for the dissociation constant of the complex between target and ligand, obtained from inhibition or displacement. A higher Ki goes with lower affinity.

Molecules are shown by their SMILES.

In this assay the target is T1, HpPutP (Helicobacter pylori, UniProt B6JPE8).
T1 construct: gene putP; full-length, C-terminal 6His tag (FLAG-6His for Western blots), expressed in E. coli WG170 (PutP-A-), intact cells
Briefly: inhibition of […]-L-proline uptake into E. coli WG170 expressing HpPutP, Dixon plot. The class given is cell-based.

T1 sequence (B6JPE8 1-496): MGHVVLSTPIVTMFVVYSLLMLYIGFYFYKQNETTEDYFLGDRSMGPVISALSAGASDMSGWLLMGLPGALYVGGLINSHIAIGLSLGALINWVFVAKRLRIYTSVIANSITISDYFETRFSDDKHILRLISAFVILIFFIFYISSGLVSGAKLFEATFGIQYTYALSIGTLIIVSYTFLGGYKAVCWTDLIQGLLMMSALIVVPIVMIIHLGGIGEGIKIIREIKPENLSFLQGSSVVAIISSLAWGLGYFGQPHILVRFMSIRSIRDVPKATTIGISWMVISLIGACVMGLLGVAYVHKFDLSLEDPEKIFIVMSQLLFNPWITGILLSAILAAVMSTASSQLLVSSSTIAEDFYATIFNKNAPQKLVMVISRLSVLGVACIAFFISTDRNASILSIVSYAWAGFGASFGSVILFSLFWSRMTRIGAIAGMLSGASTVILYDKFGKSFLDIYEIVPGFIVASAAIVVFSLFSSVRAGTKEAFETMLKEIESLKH

`O=C(O)C1C=CCN1` (racemic) [DHP, 3,4-dehydro-D,L-proline] returned a Ki of 5.7 ± 0.9 µM.

As for `O=C(O)[C@@H]1CCN1` [AZC, L-azetidine-2-carboxylic acid], the Ki was found to be 44.2 ± 6.3 µM.
